Measurements taken from article PMC8472154 (Molecules, 2021).
Like-named read-outs stand apart in the source and are kept apart here. Marks after values point to notes of the source that are not given here.

Columns and labels:
α-glucosidase = α-glucosidase (Saccharomyces cerevisiae, UniProt P53341); test: α-Glucosidase inhibition assay; format: biochemical; conditions: mean ± SD, triplicate
Description: The α-glucosidase inhibitor capacity of the essential oils was determined as described by El-Guendouz et al. The crease of absorbance was performed at 405 nm. The inhibition percentage of the enzyme was calculated as follows: I% = [(A0 −A1)/A0) × 100]; where A0 is the absorbance of the control and A1 is the absorbance of the sample. The trials were triplicated.

[1] = Hydrogen peroxide scavenging activity (colorimetric); parameters: key: ---: no activity; conditions: mean ± SD, triplicate
Description: The scavenging hydrogen peroxide was evaluated by a colorimetric assay according to Gupta and Sharma. […] Tests were carried out in triplicate.

[2] = Nitric oxide free radical scavenging activity (sodium nitroprusside); parameters: key to Half Maximal Inhibitory Concentration IC50 NO.: ---: no activity; conditions: for nitric oxide radical scavenging activity: at the concentrations permitted to evaluate, Figure 3C; for Half Maximal Inhibitory Concentration IC50 NO.: mean ± SD, triplicate
Description: The essential oil NO scavenging activity was estimated using the protocol described by El Guendouz et al. The inhibition percentage was calculated using the formula: Inhibition = [(A0 − (A1 − A2)/A0 × 100]. The A0 is the absorbance of sodium nitroprusside without sample, A1 and A2 were the absorbance of the sample with and without sodium nitroprusside.

5-lipoxygenase = 5-lipoxygenase (Glycine max, UniProt P08170); test: Lipoxygenase inhibition assay (linoleic acid substrate); format: biochemical
5-lipoxygenase, sequence (P08170 whole entry): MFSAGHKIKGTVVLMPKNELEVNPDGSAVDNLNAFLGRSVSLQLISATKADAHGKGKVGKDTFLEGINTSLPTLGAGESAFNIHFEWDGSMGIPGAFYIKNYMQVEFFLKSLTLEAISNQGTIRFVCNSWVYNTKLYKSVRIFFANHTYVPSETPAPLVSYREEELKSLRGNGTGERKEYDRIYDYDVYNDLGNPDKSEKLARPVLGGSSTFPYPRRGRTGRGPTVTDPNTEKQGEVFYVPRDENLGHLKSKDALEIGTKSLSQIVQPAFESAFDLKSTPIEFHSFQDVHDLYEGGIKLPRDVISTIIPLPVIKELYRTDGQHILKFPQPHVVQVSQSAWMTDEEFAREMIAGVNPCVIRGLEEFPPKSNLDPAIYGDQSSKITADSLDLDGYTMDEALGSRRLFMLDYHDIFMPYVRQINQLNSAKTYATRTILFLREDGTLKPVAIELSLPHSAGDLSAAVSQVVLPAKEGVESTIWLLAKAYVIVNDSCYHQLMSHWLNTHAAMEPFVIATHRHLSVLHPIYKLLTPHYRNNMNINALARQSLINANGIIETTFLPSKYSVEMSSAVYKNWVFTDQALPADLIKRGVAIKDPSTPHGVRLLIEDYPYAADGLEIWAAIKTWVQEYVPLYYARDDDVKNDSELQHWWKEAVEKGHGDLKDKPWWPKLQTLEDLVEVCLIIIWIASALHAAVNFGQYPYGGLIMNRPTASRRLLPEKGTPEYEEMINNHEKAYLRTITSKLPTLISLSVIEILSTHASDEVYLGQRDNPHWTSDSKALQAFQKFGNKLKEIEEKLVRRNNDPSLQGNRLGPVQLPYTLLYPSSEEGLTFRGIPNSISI
Description: The 5-lipoxygenase assay was carried out according to the method described by El Guendouz et al. The following formula was used to determine the percentage of inhibition action: Inhibition = [(A0 − A1)/A0) × 100]; where A0 is the absorbance of the control and A1 is the absorbance of the sample.

acetylcholinesterase [3] = biological target: T1, acetylcholinesterase (Homo sapiens, UniProt P22303); conditions: cited from earlier work
T1 sequence (P22303 32-614, species assumed): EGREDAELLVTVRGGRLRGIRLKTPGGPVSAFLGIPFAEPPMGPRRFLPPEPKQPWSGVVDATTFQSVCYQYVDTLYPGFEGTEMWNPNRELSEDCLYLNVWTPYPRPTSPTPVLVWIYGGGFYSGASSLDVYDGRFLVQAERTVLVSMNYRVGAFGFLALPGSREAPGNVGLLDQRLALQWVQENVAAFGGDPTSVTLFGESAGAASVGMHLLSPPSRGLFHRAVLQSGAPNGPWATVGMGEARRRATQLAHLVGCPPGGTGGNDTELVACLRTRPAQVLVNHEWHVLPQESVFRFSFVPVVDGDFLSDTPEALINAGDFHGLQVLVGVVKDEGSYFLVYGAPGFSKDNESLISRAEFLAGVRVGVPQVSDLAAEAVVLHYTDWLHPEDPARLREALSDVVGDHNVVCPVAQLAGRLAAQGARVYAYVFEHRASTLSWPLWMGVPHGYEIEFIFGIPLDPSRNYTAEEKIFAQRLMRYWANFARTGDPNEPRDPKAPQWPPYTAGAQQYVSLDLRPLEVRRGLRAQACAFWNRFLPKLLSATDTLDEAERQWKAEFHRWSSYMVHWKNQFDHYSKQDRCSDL

tyrosinase [4] = test: Tyrosinase inhibition assay (L-DOPA oxidation); format: biochemical; parameters: inhibition: dose or concentration left out as unconfirmed; conditions: Figure 4C; read-out: tyrosinase inhibition percentage, major terpenes
Description: (§1) The tyrosinase inhibition was carried out by the tyrosinase-dependent L-3,4-dihydroxyphenylalanine (L-DOPA) oxidation assay as previously described. The following formula was used to determine the percentage of inhibition action: Inhibition = [(A0 − A1)/A0) × 100]; with A0 as the absorbance of the control and A1 as the absorbance of the sample.

[5] = Superoxide anion radical scavenging (nonenzymatic PMS-NADH system); parameters: key: ---: no activity; conditions: mean ± SD, triplicate
Description: Superoxide anion free radical inhibition ability was evaluated using a nonenzymatic PMS-NADH (phenazine methosulfate–nicotinamide adenine dinucleotide) system as previously reported. The inhibition quantification was performed as aforementioned.

[6] = DPPH free radical-scavenging activity; conditions: mean ± SD, triplicate
Description: The radical scavenging capacity was estimated according to Bounatirou et al. using 2,20-diphenylpicrylhydrazyl (DPPH) free radicals. The radical inhibition percentage was calculated with the equation: Inhibition = [(A0 − A1)/A0 × 100]; A0 stands for the absorbance of the control and A1 stands for the absorbance of the sample. […] Tests were carried out in triplicate.

MRSA strains = system: MRSA strains; parameters: method as in PMID 31461850; conditions: cited from earlier work
S. aureus = system: S. aureus; parameters: method as in PMID 12485339; conditions: previous study; cited from earlier work
E. coli = system: E. coli; parameters: method as in PMID 12485339; conditions: previous study; cited from earlier work
E. coli DSM 1077 = test: Agar disc diffusion; format: cell-based, Escherichia coli; conditions: 5 µL per 6 mm disc, 24 h, diameter including disc, chloramphenicol 30 μg/mL
Description: (§2) The Gram negative bacterium Escherichia coli DSM 1077, and the Gram positive Staphylococcus aureus ATCC 6538 and the methicillin-resistant S. aureus 15 (MRSA 15) were used in the present study. The bacterial strains were recovered from −80 °C in the culture medium Brain Heart Infusion (BHI, Oxoid, Basingstock, UK), when required agar (VWR, Radnor, Philadelphia, PA, USA) at 1.5% w/v.
(§3) The bacterial susceptibility to the combinations Ro:La:Ca at ratio 1:1:1, Ro:La:Ca at ratio 2/3:1/6:16, Ro:La:Ca at ratio 1/6:2/3:16, Ro:La:Ca at ratio 1/6:1/6:2/3, and the components linalool, 1,8 cineole, and camphor, were performed by the agar disc diffusion technique as previously described. Briefly, 100 µL of the bacterial suspension at an OD600nm 0.3–0.4 was inoculated in BHI agar, and sterile discs (∅ 6 mm) were distributed over the surface. A volume of 5 µL of each EO and the individual components 1,8-cineole (52.62 mg/mL), and linalool (16.13 mg/mL), were deposited in the center of each disc. The plates were incubated for 24 h. The diameter of the inhibition zone including the disc was measured. The assay was performed in triplicate (n = 6).

S. aureus ATCC 6538 = test: Agar disc diffusion; format: cell-based, Staphylococcus aureus; conditions: 5 µL per 6 mm disc, 24 h, diameter including disc, chloramphenicol 30 μg/mL
Description: as §2, §3

[7] = system: methicillin-resistant S. aureus 15 (MRSA 15); test: Agar disc diffusion; format: cell-based, Staphylococcus aureus; conditions: 5 µL per 6 mm disc, 24 h, diameter including disc, chloramphenicol 30 μg/mL
Description: as §2, §3

acetylcholinesterase [8] = biological target: T1, acetylcholinesterase; test: biochemical; format: biochemical
Description: The inhibitory activity of the essential oils on acetylcholinesterase was evaluated according to the method previously described. The following formula was used to determine the percentage of inhibition action: Inhibition = [(A0 − A1)/A0) × 100]; where A0 is the absorbance of the control and A1 is the absorbance of the sample.

tyrosinase [9] = biological target: T2, tyrosinase (Homo sapiens, UniProt P14679); test: Tyrosinase inhibition assay (L-DOPA oxidation); format: biochemical; parameters: inhibition: dose or concentration left out as unconfirmed; conditions: 50 mg/mL; Figure 4C
T2 sequence (P14679 19-529): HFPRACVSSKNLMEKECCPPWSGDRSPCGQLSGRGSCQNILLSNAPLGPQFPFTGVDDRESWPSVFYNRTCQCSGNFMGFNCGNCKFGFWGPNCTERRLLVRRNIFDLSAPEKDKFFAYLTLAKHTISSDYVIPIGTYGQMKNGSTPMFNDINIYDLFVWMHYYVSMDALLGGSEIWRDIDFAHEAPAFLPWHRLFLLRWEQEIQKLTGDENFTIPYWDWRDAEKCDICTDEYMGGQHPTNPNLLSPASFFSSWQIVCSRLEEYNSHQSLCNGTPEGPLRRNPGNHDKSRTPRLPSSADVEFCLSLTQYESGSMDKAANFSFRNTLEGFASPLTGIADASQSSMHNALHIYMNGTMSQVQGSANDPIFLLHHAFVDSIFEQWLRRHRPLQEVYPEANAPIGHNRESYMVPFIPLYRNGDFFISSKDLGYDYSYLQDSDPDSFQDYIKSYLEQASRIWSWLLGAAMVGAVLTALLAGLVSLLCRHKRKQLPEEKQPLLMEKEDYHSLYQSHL
Description: as §1

α-glucosidase, sequence (P53341 whole entry): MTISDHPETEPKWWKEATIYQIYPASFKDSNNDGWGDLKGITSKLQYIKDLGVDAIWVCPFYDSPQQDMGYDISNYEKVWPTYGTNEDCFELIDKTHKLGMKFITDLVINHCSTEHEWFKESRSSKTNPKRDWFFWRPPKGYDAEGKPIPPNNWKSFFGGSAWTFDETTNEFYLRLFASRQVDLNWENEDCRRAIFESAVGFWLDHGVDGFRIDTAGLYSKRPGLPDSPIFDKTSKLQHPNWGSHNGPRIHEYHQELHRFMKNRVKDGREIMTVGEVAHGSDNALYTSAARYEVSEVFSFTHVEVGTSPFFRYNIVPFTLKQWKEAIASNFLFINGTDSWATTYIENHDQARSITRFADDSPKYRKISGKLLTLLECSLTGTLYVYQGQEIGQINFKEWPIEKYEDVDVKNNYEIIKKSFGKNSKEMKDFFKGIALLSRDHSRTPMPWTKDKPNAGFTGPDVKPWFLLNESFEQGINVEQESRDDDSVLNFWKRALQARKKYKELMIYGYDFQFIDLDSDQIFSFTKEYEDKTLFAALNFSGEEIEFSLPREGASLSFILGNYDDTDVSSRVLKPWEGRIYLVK

Compound	Half Maximal Inhibitory Concentration IC50 H2O2 [1]	nitric oxide radical scavenging activity [2]	lipoxygenase inhibition / anti-inflammatory activity (5-lipoxygenase)	IC50 (acetylcholinesterase [3]) [µM]	inhibition (tyrosinase [4]) [%]	Half Maximal Inhibitory Concentration IC50 Superoxide [5]	Half Maximal Inhibitory Concentration IC50 NO. [2]	Inhibition Zone E. coli DSM 1077 (E. coli DSM 1077)	Inhibition Zone S. aureus ATCC 6538 (S. aureus ATCC 6538)	Inhibition Zone Methicillin Resistant S. aureus 15 [7]	further results
CC1=CC[C@@H](C(C)(C)O)CC1 [α-Terpineol]	---	had activity	weak anti-inflammatory activity	8430	> 20						Half Maximal Inhibitory Concentration IC50 α-Glucosidase (α-glucosidase): had no activity
C=CC(C)(CCC=C(C)C)OC(C)=O (stereo not shown) [Linalyl acetate]	---				> 20	18.23 ± 0.01 ^b mg/mL	---				Half Maximal Inhibitory Concentration IC50 α-Glucosidase (α-glucosidase; listed as linalyl acetate): did not have activity; Half Maximal Inhibitory Concentration IC50 DPPH [6]: 148.61 ± 1.28 ^a mg/mL; Half Maximal Inhibitory Concentration IC50 NO. ([2]; listed as linalyl acetate): had no ability; MIC against MRSA strains (MRSA strains): 450.50 ± 0.00 μL/mL
C=CC(C)(O)CCC=C(C)C (stereo not shown) [Linalool]			weak anti-inflammatory activity		> 20	20.41 ± 1.47 ^b mg/mL	---	15.67 ± 0.23 ^a mm	12.83 ± 0.47 ^b,c mm	13.83 ± 1.24 ^b mm	Half Maximal Inhibitory Concentration IC50 α-Glucosidase (α-glucosidase; listed as linalool): did not have activity; Half Maximal Inhibitory Concentration IC50 DPPH [6]: 102.34 ± 3.13 ^b mg/mL; Half Maximal Inhibitory Concentration IC50 NO. ([2]; listed as linalool): had no ability; inhibition zone against S. aureus (S. aureus): 13.0 ± 4.2 mm; inhibition zone against E. coli (E. coli): 10.3 ± 0.5 mm; Inhibition Zone E. coli DSM 1077 (E. coli DSM 1077; listed as linalool): 15.67 ± 0.23 mm; Inhibition Zone S. aureus ATCC 6538 (S. aureus ATCC 6538; listed as linalool): 12.83 ± 0.47 mm; Inhibition Zone Methicillin Resistant S. aureus 15 ([7]; listed as linalool): 13.83 ± 1.24 mm
CC1(C)C2CCC1(C)C(O)C2 (stereo not shown) [Borneol]	---	had activity			> 20						IC50 (acetylcholinesterase [8]; mean ± SD, triplicate, read-out: Half Maximal Inhibitory Concentration IC50 Acetylcholinesterase (converted)): 3110 µM
O=C(N[C@H](CO)[C@H](O)c1ccc([N+](=O)[O-])cc1)C(Cl)Cl [Chloramphenicol]									10.16 ± 0.70 ^c mm	6.00 ± 0.00 ^d mm	zone of inhibition at 30 µg/mL (E. coli DSM 1077; Escherichia coli, DSM1077): 10.8 ± 0.47 mm; zone of inhibition at 30 µg/mL (S. aureus ATCC 6538; Staphylococcus aureus, ATCC6538): 10.2 ± 0.7 mm; zone of inhibition at 30 µg/mL ([7]; Staphylococcus aureus, MRSA): 6 mm
CC12CCC(CC1)C(C)(C)O2 [1,8-Cineole]			weak anti-inflammatory activity	64.8	> 20		---	12.16 ± 0.62 ^b,c mm	10.5 ± 0.70 ^c mm	12.16 ± 0.47 ^b mm	IC50 (acetylcholinesterase [8]): 1170 µM; Inhibition Zone S. aureus ATCC 6538 (S. aureus ATCC 6538; listed as 1,8-cineole): 10.5 ± 0.70 mm
C=C(C)[C@H]1CC=C(C)CC1 [Limonene]		had activity									Half Maximal Inhibitory Concentration IC50 α-Glucosidase (α-glucosidase): 1.18 ± 0.06 ^a mg/mL; Half Maximal Inhibitory Concentration IC50 Acetylcholinesterase (acetylcholinesterase [8]; mean ± SD, triplicate): 0.08 ± 0.00 ^e,f,g,h,i mg/mL; Half Maximal Inhibitory Concentration IC50 Lipoxygenase (5-lipoxygenase; mean ± SD, triplicate): 0.11 ± 0.01 ^f mg/mL
CC1=CCC2CC1C2(C)C (stereo not drawn) [α-Pinene]	---	had activity		147							tyrosinase inhibition percentage, major terpenes (tyrosinase [9]): lowest ability
CC12CCC(CC1=O)C2(C)C (stereo not shown) [Camphor]	---		weak anti-inflammatory activity		> 20	---	---	13.00 ± 0.40 ^b mm	10.5 ± 1.22 ^c mm	11.67 ± 1.02 ^b,c mm	Inhibition Zone S. aureus ATCC 6538 (S. aureus ATCC 6538; listed as camphor): 10.5 ± 1.22 mm
